The test system of series [1] is Hek Blue human or mouse Mincle-expressing cells. The format is cell-based. As to conditions: top concentrations, 24 h; compared with vehicle only-treated cells.
In a further series the test system is BALB/c mice. Kind of series: Splenocyte restimulation with M72 and intracellular cytokine staining of CD4/CD8 T cells after vaccination. As to conditions: 0.125 μg antigen plus 2, 10, or 50 nmol liposomal adjuvant, i.m. two times, spleens 5 days post-secondary. Format: in vivo, mouse. How it is done: Animal studies were carried out in an OLAW and AAALAC accredited vivarium in accordance with University of Montana's IACUC guidelines for the care and use of laboratory animals. Groups of 10–14 BALB/c mice were vaccinated intramuscularly with 0.125 μg M72 antigen and indicated concentrations of various CLR adjuvant candidates (liposomal formulations) in 50 μl total volume per injection. After 14 days, blood and serum samples were collected and a secondary vaccination was administered. At day 19 (5 days post-secondary vaccination), 3–6 mice per group were euthanized and spleens were harvested the assessment of cell-mediated immunity. At day 28 (14 days post booster vaccination) the remaining 7 mice in each group were euthanized and blood was collected for the measurement of M72 specific humoral immunity.
Spleens were harvested from vaccinated mice 5 days after secondary injections and splenocytes were harvested by disruption of the spleens through a 100 μm filter. Red blood cells were lysed by incubation with red blood cell lysis buffer (Sigma) for 5 min followed by washing in 1x PBS. Cells were plated in a 96 well plate at 5 × 10^6 cells/well in 200 μL complete RPMI1640 media. Cells were incubated with 1 μg/mL M72 antigen for […] at 37°C. After 7 h, GolgiPlug (Brefeldin A, BD Biosciences) was added to each well and incubated at 37°C for a further 12 h. Following incubation, cells were stained with the cell surface antibodies against CD3e PerCP-Cy5.5 (Tonbo Biosciences, 145-2C11), CD4a APC-Cy7 (Tonbo Biosciences, RM4-5) and CD8a PE-Cy7 (Tonbo Biosciences, 53–6.7) and viability stain (Ghost 510, Tonbo Biosciences). Cells were treated with cytofix/cytoperm (BD) and stained with anti-IFNγ PE-CF594 (BD, XMG1.2), anti-IL2 FITC (Biolegend, JES6-5H4), anti-IL-5 PE (BD, TRFK5), anti-IL17A BV421 (Biolegend, TC11-18H10.1), and anti-TNFα APC (Invitrogen, MP6-XT22). Data was collected using an LSRII flow cytometer (BD) and analyzed using FlowJo 10.0 software (TreeStar). Splenocytes were gated on live, single cells, then CD3+ to identify all T cells, then gated as CD4+CD8- to identify CD4 T cells or CD4-CD8+ to identify CD8 T cells. Gates for intracellular cytokine positive CD4 or CD8 T cells are set based on re-stimulation of naïve splenocytes. Gating strategies for the detection of antigen specific CD4+ and CD8+ T cells are outlined in Supplemental Figure 3.
Figure 7 Induction of IL-17 producing CD4+ and CD8+ T cells from an αTDE adjuvanted M72 vaccine. BALB/c mice, 10 per group, were immunized two times i.m. with 0.125 μg antigen plus 2, 10, or 50 nmol of the indicated adjuvant. Spleens were harvested from a subset of 3 mice per group at 5 days post-secondary vaccination. Splenocytes were restimulated with 1 μg/mL whole antigen and transport inhibitors followed by surface staining for CD3, CD4, and CD8 and then intracellular cytokine staining. Data represent percentage of live, CD3^+/CD4^+, left, or CD3^+/CD8^+, right, cells that are also positive for IL-17A upon stimulation.
Figure 8 B16 liposomes biases a Th17/Th2 adaptive immune response. BALB/c mice, 14 per group, were immunized twice, 14 days apart, i.m with 0.1, 1, or 10 μg of M72 antigen plus either blank DDA:DSPC liposome or B16 loaded (10 nmol final dose) liposome. (A,B) M72-specific serum antibody titers at 14 days post-secondary vaccination. (C–F) Spleens were harvested from mice at 5 days post-secondary vaccination and restimulated with 1 μg/mL whole antigen and transport inhibitors followed by surface staining for CD3, CD4, and CD8 and then intracellular cytokine staining. (C) Percent of live, CD3^+/CD4^+/IL5+ cells, (D) Percent of live, CD3^+/CD8^+/IFNγ+ cells, (E) Percent of live, CD3^+/CD4^+/IL17+ cells, and (F) Percent of live, CD3^+/CD8^+/IL17+ cells. ^*p < 0.05, ^**p < 0.01, ^****p < 0.001.
Supplemental Figure 10. Production of IFNɣ, IL-2, IL-5 or TNFα by CD4 or CD8 T cells in response to various CLR compounds. […]

The subject of the next series is THP-1 cells. Description: TNFα production from THP-1 cells (ELISA). Format: cell-based, human. The note with it: plate-coated compound, 24 h. How it is done: Supernatants were harvested from treated cells following 18–24 h of incubation. Supernatants were analyzed using a DuoSet TNFα ELISA (R&D Systems, Minneapolis, MN) or Luminex multiplex panel for analytes TNFα, IL-1β, IL-6, IFNγ, IL-12p70, and IL-23 (R&D Systems) per the manufacturer's instructions. Multiplex analysis was performed using a Luminex 200 instrument (Luminex Corporation) and analyzed with StarStation2.3 software. ELISAs were read on a plate reader at 450 nm and cytokine concentration was calculated by fitting the standard curve OD values to a 4-parameter logistical model using curve fitting software (XLfit, IDBS, Alameda, CA).
Next, investigation into activity of the alpha-branched TDE compounds was extended to include both human and murine monocytic cell lines, THP-1 and RAW264.7, respectively. These cell lines have previously been reported as responsive to the Mincle receptor agonists TDM and TDB ([30], [31]).
Figure 3 TNFα production from human THP-1 cells in response to stimulation with synthetic αTDE compounds. The indicated compounds were dissolved in 50% isopropanol/isooctane, serially diluted in vehicle and then dried to the bottom of a tissue culture plate. THP-1 cells were applied to the compound-coated plates and incubated at 37°C; supernatant was harvested 24 h later and analyzed for TNFα via ELISA (A-E). Results from the 200 μg/ml concentration vs. each compounds acyl chain length are shown in (F). Data points are average of at least two independent experiments ± SD.

From article PMC6403188, “Species-Specific Structural Requirements of Alpha-Branched Trehalose Diester Mincle Agonists” (Frontiers in Immunology, 2019) come the findings set out here.

SMILES strings stand for the structures.

In the case of `CCCCCCCCCCCCCCCCCCCCCC(=O)OC[C@H]1O[C@H](O[C@H]2O[C@H](COC(=O)CCCCCCCCCCCCCCCCCCCCC)[C@@H](O)[C@H](O)[C@H]2O)[C@H](O)[C@@H](O)[C@@H]1O` [TDB, trehalose dibehenate, reference compound], in series [1], the “Cell viability of Mincle HEK cells” value is reported as “marked decreases in viability”. In addition, the “IL-17+ CD4+ and CD8+ T cells (Th17 response) after M72 re-stimulation” value in the series with BALB/c mice is on record as “able to boost Th17”. In the series on THP-1 cells, the “TNFα induction from THP-1 cells (in words)” value was “activity at the highest concentrations tested”.
